Source: patent US20070021391A1, “Preventive/remedy for urinary disturbance” (priority 2003, published 2007)
“Also recorded” adds a separate entry of the source. Like-named read-outs stand apart in the source and are kept apart here.

Assays:
Butyrylcholine esterase = Butyrylcholine esterase (Rattus norvegicus, UniProt Q9JKC1); settings: cited from earlier work
[1] = molecular target: T1, butyrylcholine esterase of human serum origin (Homo sapiens, UniProt P06276); experiment: biochemical; assay type: biochemical
T1 construct: butyrylcholine esterase of human serum origin; purchased Biogenesis, Poole, UK; host or cells: human serum
Description: (§2) The AChE inhibitory activity and the BuChE inhibitory activity were determined by a thiocholine method (Ellman method) using acetylcholine esterase of human erythrocyte origin (Sigma, St. Louis, Mo., USA) and butyrylcholine esterase of human serum origin (Biogenesis, Poole, UK). Acetylcholine esterase or butyrylcholine esterase was diluted to a concentration of 0.2 IU/mL with 80 mM tris-HCL buffers (pH=7.4) containing 0.3% bovine serum albumin (BSA) to prepare an enzyme preparation. […] The stock solution was diluted at 3-fold common ratio with 10% DMSO and 80 mM tris-HCl buffers containing 0.3% BSA. On a 96 wells microplate, 20 μL of the drug solution with a given concentration, 30 μL of 80 mM tris-HCl buffers containing 0.3% BSA and 50 μL of the enzyme preparation were distributed, and incubated at room temperature for 1 hour after shaking for 10 seconds. […] For the respective drugs, the test was repeated twice. The % of control of the increase in light absorption was calculated at each concentration with respect to the respective drugs. % of control=increase in light absorption of drug/increase in light absorption of control×100

bladder muscle = system: bladder muscle; set-up: species or system guinea pig
[2] = system: Hartley male guinea pig, urethane anesthesia; experiment: Pressure/flow study using guinea pig (Example 3); assay type: in vivo; settings: for Amount of urination, proportion for value before administration (%) / At maximum urine flow rate Inner pressure of bladder, proportion for value before administration (%) / Maximum urine flow rate, proportion for value before administration (%): i.v.; for Bladder compliance, proportion for value before administration (%) / Bladder volume, proportion for value before administration (%): iv
Description: A Hartley male guinea pig of 5 weeks old (Japan SLC) was used. After urethane anesthesia, the medial incision of the lower abdomen was carried out, and the bladder was exposed. Two injection needles (20G) with which a polyethylene tube (PE-100) was linked were inserted in the bladder, and one needle was used for injection of saline and another needle was used for measurement of the inner pressure of the bladder. The injection of saline was continuously carried out at a rate of 18 mL/h using a syringe pump (SP-100S, JMS, and Hiroshima), the injection was stopped after intermittent urination was confirmed 3 times at minimum, and the saline in the bladder was removed by suction. Injection was started again, and the injection was stopped when the raise of the inner pressure of the bladder just before urination was confirmed. The amount of urine excreted was measured by an electronic weighing machine (HX-400, A&D, and Tokyo) and the inner pressure of the bladder was measured using a pressure transducer (AP641G, NIPPON KODEN Corporation). The analogue data of the weight of urine and the inner pressure of the bladder were inputted in a multi-channel data analyzer (MP-100A-CE, Biopac systems), and analyzed by a proprietary software (Acqknowledge, Biopac systems). The sampling interval of data was 0.1 second and a low pass filter was applied to the data of discharge amount and urine flow rate at 0.5 Hz in order to remove noise. A delay time of 0.1 second in weighing the urine was rectified, and the urine flow rate was determined by differentiating the value of discharge amount. After a value before twice administration of the drug was measured, the drugs (the compound A, distigmine, neostigigmine and bethanechol) were intravenously administrated. Saline in the bladder was extracted after 10 minutes of administration of the compound A, bethanechol and neostigigmine and after 30 minutes of administration of distigmine, and injection was started again to measure data. The drugs were dissolved with distilled water so that administration volume was 0.5 mL/kg. Parameters (bladder volume, the amount of urination, the maximum urine flow rate, the inner pressure of the bladder at the maximum urine flow, bladder compliance) below were measured. The bladder compliance was calculated from intersection point (the threshold of bladder volume, threshold pressure) which was obtained by determining regression line in the respective curves of the inner pressure of the bladder at collection of urine and urinary reflex. The change rate before and after administration of the drug was calculated for the respective parameters and the calibration of significant difference was carried out by a solvent administration group and Dunnett calibration (Table 6 and Table 7).

Hartley male guinea pig = experiment: Acetylcholine inductive salivation in guinea pig (Example 5); assay type: in vivo
Description: (§1) A male SD rat (CLEA Japan Inc.) with a body weight of about 400 g or a Hartley male guinea pig with a body weight of 400 to 500 g (Japan SLC) were used. After urethane anesthesia, sanitary cotton preliminarily weighed was inserted in the mouth of the animal and acetylcholine was intravenously administrated. After 5 minutes, the sanitary cotton was taken out to be weighed and the amount of saliva secreted was measured. The drug was intravenously administrated at 10 min before the administration of acetylcholine. The effect of oxybutynin was analyzed by paired t calibration and the concomitant use effect of the compound A was analyzed by William calibration.

male SD rat = experiment: Acetylcholine inductive salivation in rat (Example 5); assay type: in vivo; settings: for Amount of saliva secreted: rat
Description: as §1

[3] = molecular target: T2, acetylcholine esterase of human erythrocyte origin (Homo sapiens, UniProt P22303); experiment: biochemical; assay type: biochemical
T2 construct: acetylcholine esterase of human erythrocyte origin; purchased Sigma, St. Louis, Mo., USA; host or cells: human erythrocytes
Description: as §2

[4] = system: Hartley male guinea pig, urethane anesthesia; experiment: Urine flow dynamic parameters with oxybutynin and compound A (Example 6); assay type: in vivo; settings: for Bladder volume, proportion for value before administration (%) / Maximum urine flow rate, proportion for value before administration (%) / Urination efficiency, proportion for value before administration (%): iv + oxybutynin 1 mg/kg, iv
Description: A Hartley male guinea pig with a body weight of about 500 g (Japan SLC Hamamatsu) was used. After urethane anesthesia (1.4 g/kg, i.p.), the medial incision of the lower abdomen was carried out, and the bladder was exposed. Two injection needles (20G) with which a polyethylene tube (PE-100, Becton Dickinson, Franklin Lakes, N.J., USA) was linked were inserted in the bladder, and one needle was used for injection of saline and another needle was used for measurement of the inner pressure of the bladder. Further, a cannula (PE-10, Becton Dickinson) for injection of phenylephrine was inserted in right common jugular vein. […] The amount of urine eliminated was measured by an electronic weighing machine (GX-400, A&D, Tokyo) and the inner pressure of the bladder was measured using a pressure transducer (AP641G, NIPPON KODEN Corporation, Tokyo). The analogue data of the weight of urine and the inner pressure of the bladder were inputted in a multi-channel data analyzer (MP-100A-CE, Biopac systems), and analyzed by a proprietary software (Acqknowledge 3.7.1, Biopac systems). The sampling interval of data was 0.1 sec and a low pass filter was applied to the data of discharge amount and urine flow rate at 0.5 Hz in order to remove noise. A delay time of 0.1 sec in weighing the urine was rectified, and the urine flow rate was determined by differentiating the value of discharge amount. The dynamic state parameter of the flow of urine below was measured. A bladder volume, the maximum urine flow rate, urination efficiency (=amount of urination/bladder volume). The effect of oxybutynin was analyzed by the paired t calibration and the concomitant use effect of the compound A was analyzed by Dunnett calibration.

T2 sequence (P22303 32-617 isoform P22303-2 limits assumed): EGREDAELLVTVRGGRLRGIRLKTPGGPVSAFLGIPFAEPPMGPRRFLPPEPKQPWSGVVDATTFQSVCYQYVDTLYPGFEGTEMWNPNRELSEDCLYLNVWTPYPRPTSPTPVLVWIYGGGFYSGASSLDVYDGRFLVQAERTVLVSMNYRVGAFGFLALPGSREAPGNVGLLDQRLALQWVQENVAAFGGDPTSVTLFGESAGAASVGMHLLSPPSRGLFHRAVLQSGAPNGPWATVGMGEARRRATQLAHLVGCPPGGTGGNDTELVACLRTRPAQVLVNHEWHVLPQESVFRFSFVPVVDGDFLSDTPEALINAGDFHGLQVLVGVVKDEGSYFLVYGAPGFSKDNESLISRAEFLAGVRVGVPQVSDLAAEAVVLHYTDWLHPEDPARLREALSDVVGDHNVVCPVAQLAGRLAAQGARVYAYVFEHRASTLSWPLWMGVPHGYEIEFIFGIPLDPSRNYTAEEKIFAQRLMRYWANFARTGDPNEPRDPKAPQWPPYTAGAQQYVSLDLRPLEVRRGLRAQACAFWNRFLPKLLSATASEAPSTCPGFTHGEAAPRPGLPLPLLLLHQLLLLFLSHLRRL
Sequence of Butyrylcholine esterase (Q9JKC1 24-597): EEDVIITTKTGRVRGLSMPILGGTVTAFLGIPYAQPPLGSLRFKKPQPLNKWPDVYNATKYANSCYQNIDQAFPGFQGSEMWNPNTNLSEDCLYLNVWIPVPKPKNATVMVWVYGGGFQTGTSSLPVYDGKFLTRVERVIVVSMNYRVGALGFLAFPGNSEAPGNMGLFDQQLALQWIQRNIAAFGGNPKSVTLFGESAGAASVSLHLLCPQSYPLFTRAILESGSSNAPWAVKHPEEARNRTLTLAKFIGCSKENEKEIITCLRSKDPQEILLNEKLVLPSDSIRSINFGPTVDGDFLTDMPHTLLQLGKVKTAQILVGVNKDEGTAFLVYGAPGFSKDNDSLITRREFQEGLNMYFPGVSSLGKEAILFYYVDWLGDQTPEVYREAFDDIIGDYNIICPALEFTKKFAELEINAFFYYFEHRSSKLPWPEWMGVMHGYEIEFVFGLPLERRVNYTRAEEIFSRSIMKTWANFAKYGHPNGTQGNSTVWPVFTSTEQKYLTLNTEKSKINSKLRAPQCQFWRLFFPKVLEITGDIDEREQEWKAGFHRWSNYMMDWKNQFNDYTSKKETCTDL
T1 sequence (P06276 29-602): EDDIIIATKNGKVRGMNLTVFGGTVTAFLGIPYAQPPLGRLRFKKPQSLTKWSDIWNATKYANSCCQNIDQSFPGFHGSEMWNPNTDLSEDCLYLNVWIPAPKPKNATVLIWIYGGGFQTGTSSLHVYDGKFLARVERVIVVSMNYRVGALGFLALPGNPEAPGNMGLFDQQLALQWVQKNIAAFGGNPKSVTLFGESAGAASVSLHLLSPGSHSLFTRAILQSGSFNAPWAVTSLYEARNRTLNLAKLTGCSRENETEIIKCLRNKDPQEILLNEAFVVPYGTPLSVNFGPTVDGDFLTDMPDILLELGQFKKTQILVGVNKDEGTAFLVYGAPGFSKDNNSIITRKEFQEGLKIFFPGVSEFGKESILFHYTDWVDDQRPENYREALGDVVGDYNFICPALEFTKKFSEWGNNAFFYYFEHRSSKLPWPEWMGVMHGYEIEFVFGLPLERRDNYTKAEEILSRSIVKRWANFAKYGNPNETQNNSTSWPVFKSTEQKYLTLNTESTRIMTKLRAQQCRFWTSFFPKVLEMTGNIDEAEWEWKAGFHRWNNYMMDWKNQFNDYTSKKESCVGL

Structure (SMILES): CNC(=O)Oc1ccc2c(c1)[C@]1(C)CCN(C)[C@@H]1N2C [Physostigmine]
- IC50 (Butyrylcholine esterase; Literature 4, read-out: Butyrylcholine esterase inhibitory activity (IC50)): 0.016 µM
- IC50 (Butyrylcholine esterase; Literature 6, read-out: Butyrylcholine esterase inhibitory activity (IC50)): 0.015 µM

Structure (SMILES): O=C(CCC1CCN(Cc2cccc(F)c2)CC1)c1cc2c3c(c1)CCN3C(=O)CC2 [Compound A, 8-[3-[1-[(3-fluorophenyl)methyl]-4-piperidinyl]-1-oxopropyl]-1,2,5,6-tetrahydro-4H-pyrrolo[3,2,1-ij]quinolin-4-one]
- inhibitory activity for human butyrylcholine esterase [1]: did not show inhibitory activity for human butyrylcholine esterase up to 10^−5 M
- IC50 ([1]; mean value of twice tests, read-out: Butyrylcholine esterase IC50): > 10 µM
- Tension (%) (bladder muscle; 0.003 μM, 30 minutes, change of basic tension, 100 mM KCl contraction = 100%): −0.55 ± 0.60%
- Tension (%) (bladder muscle; 0.01 μM, 30 minutes, change of basic tension, 100 mM KCl contraction = 100%): −0.26 ± 0.38%
- Tension (%) (bladder muscle; 0.03 μM, 30 minutes, change of basic tension, 100 mM KCl contraction = 100%): 0.13 ± 0.80%
- Tension (%) (bladder muscle; 0.1 μM, 30 minutes, change of basic tension, 100 mM KCl contraction = 100%): −0.74 ± 0.60%
- Tension (%) (bladder muscle; Table 5: Compound A 0.1 μM with iso-OMPA 10 μM): 1.96 ± 0.87 %
- Tension (%) (bladder muscle; Table 5: Compound A 0.1 μM with iso-OMPA 100 μM): 5.43 ± 1.17 %
- Tension (%) (bladder muscle; Table 5: Compound A 0.1 μM, iso-OMPA 0 μM): −0.47 ± 0.17%
- effect on basic tension (bladder muscle; compound A used in combination with iso-OMPA): significant increase in the basic tension was confirmed
- effect on basic tension (bladder muscle; drug alone): did not influence the basic tension
- Amount of urination, proportion for value before administration (%) ([2]; 0.003 mg/kg): 150.2 ± 10.0 %
- At maximum urine flow rate Inner pressure of bladder, proportion for value before administration (%) ([2]; 0.003 mg/kg): 117.5 ± 6.2%
- Maximum urine flow rate, proportion for value before administration (%) ([2]; 0.003 mg/kg): 112.1 ± 9.7 %
- Bladder compliance, proportion for value before administration (%) ([2]; 0.003 mg/kg): 75.2 ± 4.8%
- Bladder volume, proportion for value before administration (%) ([2]; 0.003 mg/kg): 94.6 ± 5.8%
- Amount of urination, proportion for value before administration (%) ([2]; 0.01 mg/kg): 165.2 ± 18.2 %
- At maximum urine flow rate Inner pressure of bladder, proportion for value before administration (%) ([2]; 0.01 mg/kg): 110.9 ± 6.0%
- Maximum urine flow rate, proportion for value before administration (%) ([2]; 0.01 mg/kg): 124.4 ± 10.3 %
- Bladder compliance, proportion for value before administration (%) ([2]; 0.01 mg/kg): 82.6 ± 2.6%
- Bladder volume, proportion for value before administration (%) ([2]; 0.01 mg/kg): 101.7 ± 5.0%
- Amount of urination, proportion for value before administration (%) ([2]; 0.03 mg/kg): 164.0 ± 13.4 %
- At maximum urine flow rate Inner pressure of bladder, proportion for value before administration (%) ([2]; 0.03 mg/kg): 116.9 ± 8.4%
- Maximum urine flow rate, proportion for value before administration (%) ([2]; 0.03 mg/kg): 133.5 ± 15.3 %
- Bladder compliance, proportion for value before administration (%) ([2]; 0.03 mg/kg): 95.9 ± 18.0%
- Bladder volume, proportion for value before administration (%) ([2]; 0.03 mg/kg): 117.2 ± 9.0 %
- change of the parameters at urination and at collection of urine (text) ([2]; intravenous administration): increased significantly the amount of urination and the maximum urine flow rate at 0.003 mg/kg or more; also recorded: the increase of the bladder volume was confirmed at 0.03 mg/kg, and did not influence the bladder compliance
- Amount of saliva secreted (Hartley male guinea pig; Compound A 0.003 mg/kg + oxybutynin 1 mg/kg + acetylcholine 1 mg/kg): 0.17 ± 0.03 g
- Amount of saliva secreted (Hartley male guinea pig; Compound A 0.010 mg/kg + oxybutynin 1 mg/kg + acetylcholine 1 mg/kg): 0.27 ± 0.02 g
- action on acetylcholine-induced secretion of saliva (male SD rat; rat and guinea pig (Tables 9 and 10)): significantly antagonized
- Amount of saliva secreted (male SD rat; Compound A 0.001 mg/kg + oxybutynin 0.1 mg/kg + acetylcholine 1 mg/kg): 0.22 ± 0.02 g
- Amount of saliva secreted (male SD rat; Compound A 0.003 mg/kg + oxybutynin 0.1 mg/kg + acetylcholine 1 mg/kg): 0.26 ± 0.02 g
- Amount of saliva secreted (male SD rat; Compound A 0.01 mg/kg + oxybutynin 0.1 mg/kg + acetylcholine 1 mg/kg): 0.49 ± 0.03 g
- Acetylcholine esterase selective inhibitory activity [3]: ≥ 6700 fold
- inhibition of the activity of human acetylcholine esterase [3]: inhibited the activity of human acetylcholine esterase
- Selectivity b/a ([3]; BuChE IC50/AChE IC50 (Table 2)): >6700
- IC50 ([3]; mean value of twice tests, read-out: Acetylcholine esterase IC50): 0.0015 µM
- Bladder volume, proportion for value before administration (%) ([4]; Compound A 0.003 mg/kg): 21.07 ± 4.65%
- Maximum urine flow rate, proportion for value before administration (%) ([4]; Compound A 0.003 mg/kg): −34.88 ± 8.22%
- Urination efficiency, proportion for value before administration (%) ([4]; Compound A 0.003 mg/kg): −61.67 ± 7.22%
- Bladder volume, proportion for value before administration (%) ([4]; Compound A 0.01 mg/kg): 24.73 ± 7.05%
- Maximum urine flow rate, proportion for value before administration (%) ([4]; Compound A 0.01 mg/kg): −9.04 ± 5.94 %
- Urination efficiency, proportion for value before administration (%) ([4]; Compound A 0.01 mg/kg): −30.23 ± 10.48 %
- action on bladder volume, maximum urine flow rate and urination efficiency ([4]; oxybutynin 1 mg/kg, compound A 0.003, 0.01 mg/kg with oxybutynin): acted antagonistically against the lowering of the maximum urine flow rate and urination efficiency but did not influence the increase of bladder volume
